Source: patent EP1247803A2, “Indolinone compounds suitable for modulation of protein kinases” (Sugen, Inc., priority 1996, dated 1998)

biological target: T1, EGFR (Homo sapiens, UniProt P00533); experiment: EGFR ELISA assay (in vitro kinase activity, EGFR captured from A431 cell lysate); type: biochemical; set-up: concentration or dose not given beside the values
T1 construct: Add 7 ug A431 cell lysate per well (EGFR source); endogenous in cells; host or cells: A431
Method in brief: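 EGFR from A431 lysate was captured on plates coated with anti-EGFR antibody. Compounds were added 30 min before a 5 min phosphorylation with 3 µM ATP/5 mM MnCl2, which was stopped with 20 mM EDTA. Phosphotyrosine was detected with rabbit anti-phosphotyrosine, then a peroxidase-conjugated secondary and ABTS/H2O2, read at 410 nm.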

T1 sequence (P00533 25-1210): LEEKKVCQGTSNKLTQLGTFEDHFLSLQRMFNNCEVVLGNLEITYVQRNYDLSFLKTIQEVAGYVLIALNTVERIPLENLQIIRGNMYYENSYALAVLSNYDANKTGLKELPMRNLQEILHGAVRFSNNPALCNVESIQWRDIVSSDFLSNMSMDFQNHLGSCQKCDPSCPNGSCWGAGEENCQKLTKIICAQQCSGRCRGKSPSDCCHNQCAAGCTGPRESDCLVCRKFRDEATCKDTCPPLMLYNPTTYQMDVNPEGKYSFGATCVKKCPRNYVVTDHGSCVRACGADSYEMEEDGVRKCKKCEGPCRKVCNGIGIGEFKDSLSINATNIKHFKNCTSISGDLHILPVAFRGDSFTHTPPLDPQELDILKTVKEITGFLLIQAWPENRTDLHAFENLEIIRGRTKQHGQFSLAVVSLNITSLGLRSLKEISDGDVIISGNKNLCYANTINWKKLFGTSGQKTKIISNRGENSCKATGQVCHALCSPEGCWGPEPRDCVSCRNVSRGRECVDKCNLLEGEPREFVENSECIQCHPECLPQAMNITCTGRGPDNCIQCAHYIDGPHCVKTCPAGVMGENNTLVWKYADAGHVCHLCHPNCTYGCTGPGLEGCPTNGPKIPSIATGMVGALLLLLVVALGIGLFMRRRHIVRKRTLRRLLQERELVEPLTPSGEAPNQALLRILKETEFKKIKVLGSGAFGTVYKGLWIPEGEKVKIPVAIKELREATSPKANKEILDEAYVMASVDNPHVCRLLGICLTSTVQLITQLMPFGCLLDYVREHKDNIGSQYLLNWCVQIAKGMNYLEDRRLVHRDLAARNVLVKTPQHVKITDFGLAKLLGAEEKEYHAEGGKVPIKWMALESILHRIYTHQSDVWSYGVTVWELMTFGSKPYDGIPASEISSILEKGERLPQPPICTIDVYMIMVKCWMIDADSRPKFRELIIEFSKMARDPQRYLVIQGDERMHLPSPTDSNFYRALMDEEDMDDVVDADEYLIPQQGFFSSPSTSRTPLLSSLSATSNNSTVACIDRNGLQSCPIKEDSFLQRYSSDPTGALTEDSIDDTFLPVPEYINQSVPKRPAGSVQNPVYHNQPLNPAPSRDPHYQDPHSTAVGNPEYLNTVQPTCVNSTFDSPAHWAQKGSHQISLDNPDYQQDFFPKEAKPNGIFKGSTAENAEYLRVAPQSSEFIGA

Row | SMILES | Biochem EGFR %Inhibition
1 | COc1cccc(O)c1C=C1C(=O)Nc2c(Br)cc(Br)cc21 [10717/A10] | 8.1%
2 | CNS(=O)(=O)c1ccc2c(c1)C(=Cc1c(C)[nH]c(C(=O)OC)c1C(=O)OC)C(=O)N2 [10718/D07] | 5.6%
3 | CNS(=O)(=O)c1ccc2c(c1)C(=Cc1ccc(Cl)c([N+](=O)[O-])c1)C(=O)N2 [10718/D08] | 3.0%
4 | CNS(=O)(=O)c1ccc2c(c1)C(=Cc1ccc(O)c(C)c1O)C(=O)N2 [10718/D09] | 6.0%
5 | CNS(=O)(=O)c1ccc2c(c1)C(=Cc1ccco1)C(=O)N2 [10718/D10] | 12.3%
6 | CNS(=O)(=O)c1ccc2c(c1)C(=Cc1ccc([N+](=O)[O-])o1)C(=O)N2 [10718/D11] | 5.4%
7 | CCOC(=O)c1c(C)[nH]c(C=C2C(=O)Nc3ccc(S(=O)(=O)Nc4ccc(C(F)(F)F)cc4)cc32)c1C [10718/E02] | 1.0%
8 | COc1cc(Br)c(O)c(C=C2C(=O)Nc3ccc(S(=O)(=O)Nc4ccc(C(F)(F)F)cc4)cc32)c1 [10718/E03] | 50.4%
9 | CNS(=O)(=O)c1ccc2c(c1)C(=Cc1cc(I)c(OC)c(C(C)(C)C)c1)C(=O)N2 [10732/D11] | -13.4%
10 | O=C1Nc2ccc(S(=O)(=O)Nc3ccc(C(F)(F)F)cc3)cc2C1=CC(c1cccs1)C(F)(F)F (stereo not drawn) [10732/E02] | 0.8%
11 | COc1c(C(C)C)cc(C=C2C(=O)Nc3ccc(S(=O)(=O)Nc4ccc(C(F)(F)F)cc4)cc32)cc1C(C)C [10732/E03] | -1.6%
12 | CC(C)c1cc(C=C2C(=O)Nc3ccc(S(=O)(=O)Nc4ccc(C(F)(F)F)cc4)cc32)cc(C(C)C)c1Oc1ccccc1 [10732/E04] | -10.6%
13 | COc1ccc(C=C2C(=O)Nc3ccc(S(=O)(=O)Nc4ccc(C(F)(F)F)cc4)cc32)cc1C(C)(C)C [10732/E05] | -17.0%
14 | CC(C)(C)c1cc(C=C2C(=O)Nc3ccc(S(=O)(=O)Nc4ccc(C(F)(F)F)cc4)cc32)ccc1OCc1ccccc1 [10732/E06] | -11.0%
15 | COc1c(Br)cc(C=C2C(=O)Nc3ccc(S(=O)(=O)Nc4ccc(C(F)(F)F)cc4)cc32)cc1C(C)(C)C [10732/E07] | -8.5%
16 | CC(C)(C)c1cc(C=C2C(=O)Nc3ccc(S(=O)(=O)Nc4ccc(C(F)(F)F)cc4)cc32)cc(Br)c1OCc1ccccc1 [10732/E08] | -21.7%
17 | COc1c(Cl)cc(C=C2C(=O)Nc3ccc(S(=O)(=O)Nc4ccc(C(F)(F)F)cc4)cc32)cc1C(C)(C)C [10732/E09] | -7.2%
18 | CC(C)(C)c1cc(C=C2C(=O)Nc3ccc(S(=O)(=O)Nc4ccc(C(F)(F)F)cc4)cc32)cc(Cl)c1OCc1ccccc1 [10732/E10] | -3.3%
19 | COc1c(I)cc(C=C2C(=O)Nc3ccc(S(=O)(=O)Nc4ccc(C(F)(F)F)cc4)cc32)cc1C(C)(C)C [10732/E11] | -32.2%
20 | O=C1Nc2ccc(S(=O)(=O)N3CCOCC3)cc2C1=CC(c1cccs1)C(F)(F)F (stereo not drawn) [10732/F02] | 23.1%
21 | COc1c(C(C)C)cc(C=C2C(=O)Nc3ccc(S(=O)(=O)N4CCOCC4)cc32)cc1C(C)C [10732/F03] | 54.1%
22 | CC(C)c1cc(C=C2C(=O)Nc3ccc(S(=O)(=O)N4CCOCC4)cc32)cc(C(C)C)c1Oc1ccccc1 [10732/F04] | -0.1%
23 | COc1ccc(C=C2C(=O)Nc3ccc(S(=O)(=O)N4CCOCC4)cc32)cc1C(C)(C)C [10732/F05] | -30.7%
24 | CC(C)(C)c1cc(C=C2C(=O)Nc3ccc(S(=O)(=O)N4CCOCC4)cc32)ccc1OCc1ccccc1 [10732/F06] | -8.0%
